Measured values taken from patent publication US20230286968A1, “ARYLOXAZOLO SPIRAL RING DERIVATIVES FOR THE TREATMENT AND PROPHYLAXIS OF HEPATITIS B VIRUS INFECTION” (Hoffmann-La Roche Inc., priority 2020, published 2023).

What was measured:
HBeAg = assay: PHH natural infection assay, HBeAg (alphalisa); assay type: cell-based, HBV; conditions: Hepatitis B virus, Hepatocyte, read-out: HBeAg IC50, HBV-infected primary human hepatocytes, supernatant, alphalisa
Procedure: (§1) Detailed procedures regarding primary human hepatocyte (PHH) HBV natural infection assay are described as below. One tube of frozen PHH (10 million cells) is thawed in 37° C. water bath and then transferred to 20 mL of PHH thawing medium (Sigma, InVitroGRO HT Medium, Cat. S03319) with gently mixing. The cells were then centrifuged at […] for 5 min, the supernatant was discarded and the tube was refilled with 25 mL of PHH plating medium (Sigma, InVitroGRO CP Medium, Cat. S03317). The tube was shaken very gently to re-suspend all cells, and then 50 μL of cells were transferred to each well 384-well collagen I coated plate with appropriate liquid handling equipment, e.g. Integra VIAFLO384 or Agilent Bravo. The cells were then cultured for 24 hours in a cell incubator. For HBV infection, after PHH attachment on the culture plate, the plating medium was removed and replenished with PHH culture medium containing HBV virus. The PHH culture medium was prepared with Dulbecco's Modified Eagle Medium (DMEM)/F12 (1:1 in volume ratio) containing 10% fetal bovine serum (Gibco, Cat. 10099141), 5 ng/mL human epidermal growth factor (Gibco, Cat.PHG0311L), 20 ng/mL dexamethasone (Sigma, Cat.D4902-100 mg), 250 ng/mL human recombinant insulin (Gibco, Cat.41400045) and 100 U/mL penicillin. HBV virus at 200 genome equivalent (GE) per cell with 4% PEG8000 (Sigma, Cat.P1458) containing culture medium were added to the PHH culture medium for infection. The cells were then cultured for 24 hours in cell incubator. Then the cell culture supernatant was removed. The HBV-infected PHH were cultured with sandwich culture method with PHH culture medium containing […] and 0.25 mg/mL matrix gel for 72 hours. The supernatant was then refreshed with PHH culture medium containing different concentrations of testing compounds for two times with 72-hour interval. At the end of treatment, the supernatant was collected for viral markers measurements, including HBsAg, HBeAg, HBV DNA and cytotoxicity. HBsAg and HBeAg were detected using alphalisa method using their specific antibodies. For HBV DNA detection, HBV DNA Quantitative Fluorescence Diagnostic Kit (Sansure Biotech Inc.) was used following the manufacture's protocol. Cytotoxicity was determined using Cell Counting Kit-8 (CCK8, Dojindo Molecular Technologies, Inc.).
(§2) The compounds of the present invention were tested for their capacity to inhibit HBsAg and HBeAg as described herein.

[1] = Cytotoxicity in PHH natural infection assay (Cell Counting Kit-8); assay type: cell-based; conditions: HBV-infected primary human hepatocytes, CCK8
Procedure: as §1

HBsAg = assay: PHH natural infection assay, HBsAg (alphalisa); assay type: cell-based, HBV; conditions: Hepatitis B virus, Hepatocyte, read-out: HBsAg IC50, HBV-infected primary human hepatocytes, supernatant, alphalisa
Procedure: as §1, §2

SMILES	IC50 (HBeAg)	CC50 at 144 h [1]	IC50 (HBsAg)
O=C(NC1CC2(C1)CC(c1nc3cc(Cl)ccc3o1)C2)c1ccnc(N2CCS(=O)(=O)CC2)c1 (stereo not drawn) [Example 91, N-[6-(5-chloro-1,3-benzoxazol-2-yl)spiro[3.3]heptan-2-yl]-2-(1,1-dioxo-1,4-thiazinan-4-yl)pyridine-4-carboxamide]	0.95 µM	> 10 µM	1.1 µM
NS(=O)(=O)CCCC(=O)NC1CC2(C1)CC(c1nc3cc(Cl)ccc3o1)C2 (stereo not drawn) [Example 39, N-[6-(5-chloro-1,3-benzoxazol-2-yl)spiro[3.3]heptan-2-yl]-4-sulfamoyl-butanamide]	4.8 µM	> 10 µM	5.98 µM
CC(C)CC(=O)NC1CC2(C1)CC(c1nc3cc(Cl)ccc3o1)C2 (stereo not drawn) [Example 28, N-[6-(5-chloro-1,3-benzoxazol-2-yl)spiro[3.3]heptan-2-yl]-3-methyl-butanamide]	2.28 µM	> 100 µM	2.54 µM
CN(C)C(=O)c1cc(C(=O)NC2CC3(C2)CC(c2nc4cc(Cl)ccc4o2)C3)ccn1 (stereo not drawn) [Example 103, N4-[6-(5-chloro-1,3-benzoxazol-2-yl)spiro[3.3]heptan-2-yl]-N2,N2-dimethyl-pyridine-2,4-dicarboxamide]	4.02 µM	> 10 µM	5.63 µM
CCCS(=O)(=O)N1CCC(C(=O)NC2CC3(C2)CC(c2nc4cc(Cl)ccc4o2)C3)C1 (stereo not drawn) [Example 71, N-[6-(5-chloro-1,3-benzoxazol-2-yl)spiro[3.3]heptan-2-yl]-1-propylsulfonyl-pyrrolidine-3-carboxamide]	9.43 µM	> 10 µM	9.73 µM
O=C(NC1CC2(C1)CC(c1nc3ncccc3o1)C2)C1CCS(=O)(=O)C1 (stereo not drawn) [Example 41, N-(6-oxazolo[4,5-b]pyridin-2-ylspiro[3.3]heptan-2-yl)-1,1-dioxo-thiolane-3-carboxamide]	2.32 µM	> 100 µM	5.28 µM
CCS(=O)(=O)c1cc(C(=O)NC2CC3(C2)CC(c2nc4cc(Cl)ccc4o2)C3)ccn1 (stereo not drawn) [Example 26, N-[6-(5-chloro-1,3-benzoxazol-2-yl)spiro[3.3]heptan-2-yl]-2-ethylsulfonyl-pyridine-4-carboxamide]	0.19 µM	74.1 µM	0.28 µM
O=C(NC1CC2(C1)CC(c1nc3cc(Cl)ccc3o1)C2)C1CC2(C1)CS(=O)(=O)C2 (stereo not drawn) [Example 52, N-[6-(5-chloro-1,3-benzoxazol-2-yl)spiro[3.3]heptan-2-yl]-2,2-dioxo-2-thiaspiro[3.3]heptane-6-carboxamide]	5.71 µM	> 100 µM	9.99 µM
O=C(NC1CC2(C1)CC(c1nc3cc(Cl)ccc3o1)C2)C1CCS(=O)(=O)C1 (stereo not drawn) [Example 40, N-[6-(5-chloro-1,3-benzoxazol-2-yl)spiro[3.3]heptan-2-yl]-1,1-dioxo-thiolane-3-carboxamide]	5.09 µM	> 100 µM	5.72 µM
CC(C)N(C)c1cc(C(=O)NC2CC3(C2)CC(c2nc4cc(Cl)ccc4o2)C3)ccn1 (stereo not drawn) [Example 12, N-[6-(5-chloro-1,3-benzoxazol-2-yl)spiro[3.3]heptan-2-yl]-2-[isopropyl(methyl)amino]pyridine-4-carboxamide]	1.55 µM	> 10 µM	2.03 µM
CS(=O)(=O)N1CC(CC(=O)NC2CC3(C2)CC(c2nc4cc(Cl)ccc4o2)C3)C1 (stereo not drawn) [Example 77, N-[6-(5-chloro-1,3-benzoxazol-2-yl)spiro[3.3]heptan-2-yl]-2-(1-methylsulfonylazetidin-3-yl)acetamide]	4.35 µM	> 10 µM	7.08 µM
CN1CCC(C(=O)NC2CC3(C2)CC(c2nc4cc(Cl)ccc4o2)C3)CC1=O (stereo not drawn) [Example 34, N-[6-(5-chloro-1,3-benzoxazol-2-yl)spiro[3.3]heptan-2-yl]-1-methyl-2-oxo-piperidine-4-carboxamide]	4.42 µM	> 100 µM	8.69 µM
